≈ marks a conversion by molar mass, not a printed value. Calls of active or inactive are those of the source. How the calls were made is not given here. Some results are limits rather than exact numbers.

This is an account of results in PubChem BioAssay AID624321 (Sanford-Burnham Center for Chemical Genomics, 2012).

For this data set, the system named is aqueous solubility in 1x PBS. The experiment in a line: compound solubility in 1x PBS – biophysical, set 2, ADME assay (AID 624321). To be noted: at 100 µM; hits give high values.

Regarding `Cc1cc(C)nc(-n2nc(C)c(Sc3ccc(F)cc3)c2N)n1`, the solubility was 4.8 µg/mL (inactive) (≈ 14.6 µM). As for `CCCOc1ccc(-c2nc(OC)c3ccccc3n2)cc1`, the solubility is < 0.01 µg/mL (inactive). Take `O=c1oc2c(O)c(O)cc3c(=O)oc4c(O)c(O)cc1c4c23`: the solubility was greater than 30 µg/mL. As for `CCCN1CNc2c(c(=O)[nH]c(=S)n2CCc2ccc(OC)c(OC)c2)C1`, the solubility was greater than 39 µg/mL. Turning to `COc1ccc(N(C(=O)CCl)C(C(=O)NCCc2ccccc2)c2cccs2)cc1Cl` (centres undefined), the solubility was 0.51 µg/mL (inactive) (≈ 1.07 µM). With `CN1CSC(=S)N(C)C1` the figure was greater than 16 µg/mL. As for `CC1CCCN(C(C(=O)Nc2ccc3c(c2)OCCO3)c2ccccc2)C1` (centres undefined), the solubility was 5.2 µg/mL (inactive) (≈ 14.2 µM). `Cc1ccc(S(=O)(=O)n2c(N)nc3ccccc32)cc1`: the solubility was 1.8 µg/mL (inactive) (≈ 6.26 µM).

As to `Cc1ccc(C(=O)n2c3ccccc3c3ccccc32)cc1`, the solubility is 0.03 µg/mL (inactive) (≈ 0.105 µM). On to `CCc1nnc(NC(=O)c2ccc(NS(=O)(=O)c3ccccc3)cc2)s1`, for which the solubility is 1.3 µg/mL (inactive) (≈ 3.35 µM). On to `CCCc1nc2c(=O)n(C)c(=O)nc-2n(C)n1`, for which the solubility was greater than 23 µg/mL. As for `COc1ccc(S(=O)(=O)N2CCN(S(=O)(=O)c3ccc4c(c3)OCCO4)CC2)cc1`, the solubility is 0.26 µg/mL (inactive) (≈ 0.572 µM). `CSc1nc(-c2ccc(C)cc2)nc(C(Cl)Cl)n1`: the solubility is 0.07 µg/mL (inactive) (≈ 0.233 µM). Consider `COc1ccc(C2c3c(ncn(CCN4CCOCC4)c3=N)Oc3ccc4ccccc4c32)cc1OC` (centres undefined), for which the solubility was 35.4 µg/mL (≈ 71 µM). For `Cc1cccc(-n2cnc3cc(C(=O)N4CCCCC4)ccc32)c1` the value was 26.3 µg/mL (≈ 82.3 µM). For `O=C1C2CC=CCC2C(=O)N1c1n[nH]c(-c2ccccc2)n1` (centres undefined) the value was greater than 29 µg/mL; for `CC(C)C(=O)NC(c1ccco1)c1ccc2cccnc2c1O` (centres undefined), 3.3 µg/mL (inactive) (≈ 10.6 µM). As for `COc1ccc(OC)c(-c2nnc3n2N=C(c2ccc(OC)c(OC)c2)CS3)c1`, the solubility was 26.8 µg/mL (≈ 65 µM). As to `O=C(COC(=O)C12CC3CC(CC(C3)C1)C2)NCc1ccco1`, the solubility was < 0.01 µg/mL (inactive).

For the compound `O=C(O)c1ccc(N2C(=O)/C(=C/c3ccc(-c4ccc([N+](=O)[O-])cc4)o3)C=C2c2ccccc2)cc1`, the solubility was 0.92 µg/mL (inactive) (≈ 1.92 µM). For `CC[C@H]1CN2CCc3cc(OC)c(OC)cc3[C@@H]2C[C@@H]1C[C@H]1NCCc2cc(OC)c(OC)cc21` the value was greater than 55 µg/mL; for `O=S1(=O)Nc2c(ccc3cccnc23)-c2ccccc21`, greater than 28 µg/mL; for `Cc1nc(SCc2nc3ccccc3[nH]2)c2oc3ccccc3c2n1`, 0.15 µg/mL (inactive) (≈ 0.433 µM). `COc1ccccc1N(/N=C1\Sc2ccccc2C1=O)C(C)=O`: the solubility was 3.7 µg/mL (inactive) (≈ 11.3 µM). Take `O=c1c2ccccc2[se]n1-c1ccccc1`: the solubility is 7.2 µg/mL (inactive) (≈ 26.3 µM).

`COc1nc(-c2ccccc2)nnc1-c1ccccc1`: the solubility is 0.18 µg/mL (inactive) (≈ 0.684 µM). For `CCCn1ncc(CN2CCCC(C(=O)c3cccc(OC(C)C)c3)C2)c1C` (centres undefined) the value was 29.6 µg/mL (≈ 77.2 µM); for `COc1ccc(S(=O)(=O)n2nc(OC(=O)c3ccccc3)cc2N)cc1`, 1.1 µg/mL (inactive) (≈ 2.95 µM); for `Cc1ccc(-n2c(N)c(C#N)c(-c3ccccc3)c(C#N)c2=O)cc1`, 0.83 µg/mL (inactive) (≈ 2.54 µM).

On to `COC(=O)c1ccccc1NC(=O)c1ccc(F)cc1`, for which the solubility is 0.94 µg/mL (inactive) (≈ 3.44 µM).

For the compound `O=C(O)c1ccccc1OCc1ccccc1Br`, the solubility was greater than 30 µg/mL. With `N#C/C(=C\c1ccc([N+](=O)[O-])o1)c1nc2ccccc2[nH]1`, the solubility was 0.17 µg/mL (inactive) (≈ 0.607 µM).

As for `CN(C)c1oc(-c2ccc(OCc3ccc(Cl)cc3)cc2)nc1C#N`, the solubility is 0.03 µg/mL (inactive) (≈ 0.0848 µM).

Take `COc1ccc(CNCc2cccc3ccccc23)cc1`: the solubility is 29.6 µg/mL (≈ 107 µM). As to `O=S(=O)(NC1CCCCC1N1CCOCC1)c1ccc(Cl)cc1` (centres undefined), the solubility is greater than 36 µg/mL. Take `c1ccc(-c2nnc(N3CCOCC3)nc2-c2ccccc2)cc1`: the solubility is 2.1 µg/mL (inactive) (≈ 6.6 µM). `Cc1cc2c(s1)c1cnn(Cc3ccccc3F)c(=O)c1n2C`: the solubility is 0.08 µg/mL (inactive) (≈ 0.244 µM). Take `NC(=O)C1CCN(c2nc(-c3ccc(Br)cc3)cs2)CC1`: the solubility was 0.14 µg/mL (inactive) (≈ 0.382 µM). As for `O=C(c1ccccn1)N(Cc1cccs1)C1(C(=O)NC2CCCCC2)CCCCC1`, the solubility is 7.3 µg/mL (inactive) (≈ 17.2 µM). `CS(=O)(=O)c1ccc(C(=O)OCC(=O)NC23CC4CC(CC(C4)C2)C3)cc1[N+](=O)[O-]`: the solubility is 4.8 µg/mL (inactive) (≈ 11 µM). As to `COc1ccc(C2CC(c3ccccc3)=NN2c2ccc(S(N)(=O)=O)cc2)cc1` (centres undefined), the solubility was 0.02 µg/mL (inactive) (≈ 0.0491 µM). With `CN(C)C1=C(Cl)C(=O)N(c2ccc(Cl)c(Cl)c2)C1=O`, the solubility is < 0.01 µg/mL (inactive). For `O=c1[nH]c(SCc2ccc(Cl)cc2)nc2c1CCC2`, the solubility is 0.62 µg/mL (inactive) (≈ 2.12 µM).

As to `CCOc1ccc(NC(=S)N2CCC(C(O)(c3ccccc3)c3ccccc3)CC2)cc1`, the solubility is 0.92 µg/mL (inactive) (≈ 2.06 µM). As to `CCCc1cc(C(=O)N(C2CCCCC2)C2CCCCC2)no1`, the solubility is 1.5 µg/mL (inactive) (≈ 4.71 µM). Turning to `CCOC(=O)C(C)Oc1cccc2c(=O)n(CC(=O)Nc3ccc4c(c3)OCCO4)ccc12` (centres undefined), the solubility is 0.35 µg/mL (inactive) (≈ 0.774 µM).

As to `CC(C)(C)OC(=O)NCCc1nnc(S(=O)(=O)Cc2ccc(Cl)cc2Cl)o1`, the solubility was 5.8 µg/mL (inactive) (≈ 13.3 µM). In the case of `Cc1cc(-c2nnc3n2CCCCC3)c(C)n1-c1ccccc1`, the solubility is greater than 30 µg/mL. Regarding `COc1ccc(Sc2ccc(NC(=O)c3ccccc3Cl)cc2C#N)cc1`, the solubility is < 0.01 µg/mL (inactive).

As to `COc1cccc(-c2nc(-c3ccc(NC(=O)Cc4ccccc4OC)cc3)no2)c1`, the solubility was 0.04 µg/mL (inactive) (≈ 0.0963 µM). With `Cc1cc(C(=O)CN2C(=O)CCC2=O)c(C)n1Cc1ccccc1` the figure was 17.8 µg/mL (≈ 54.9 µM); with `O=C1NCCCc2c1oc1ccc(O)cc21`, 16.8 µg/mL (≈ 77.3 µM); with `O=C(COc1ccccc1Br)NCCc1nc2ccccc2[nH]1`, 29.4 µg/mL (≈ 78.6 µM). Turning to `CCc1oc2ccccc2c1C(=O)c1cc(Br)c(O)c(Br)c1`, the solubility was greater than 42 µg/mL.

In the case of `Cc1ccccc1N1CCN(c2ncnc3c2cnn3Cc2ccc(Cl)cc2)CC1`, the solubility is 0.01 µg/mL (inactive) (≈ 0.0239 µM). In the case of `c1ccc2c(Nc3nnc(-c4ccncc4)s3)cccc2c1`, the solubility is 2.7 µg/mL (inactive) (≈ 8.87 µM). Take `Cn1cnc([N+](=O)[O-])c1Sc1ncnc2nc[nH]c12`: the solubility is greater than 27 µg/mL. As to `Oc1cc(O)cc(/C=C/c2ccc(O)c(O)c2)c1`, the solubility was 6.5 µg/mL (inactive) (≈ 26.6 µM). For `Cc1ccc(S(=O)(=O)NCc2ccc(C(=O)NCCN(Cc3ccccc3)C(C)C)cc2)cc1`, the solubility is 18.6 µg/mL (≈ 38.8 µM). For `Cc1cc(C)n(-c2nc(NCCCO)c3c4c(sc3n2)CCCC4)n1` the value was 17.1 µg/mL (≈ 47.8 µM); for `CCCN(CCC)CCNC(=O)C1CCN(Cc2nc(-c3ccc(Cl)cc3)oc2C)CC1`, greater than 46 µg/mL; for `O=C(O)CCC(NS(=O)(=O)c1ccc(-c2ccccc2)cc1)C(=O)O` (centres undefined), greater than 36 µg/mL. Turning to `O=[N+]([O-])c1ccc(CN2CCOCCOCCN(Cc3ccc([N+](=O)[O-])cc3)CCOCC2)cc1`, the solubility is 21.7 µg/mL (≈ 44.4 µM). On to `O=C(CCNS(=O)(=O)c1cccc2nsnc12)N1CCN(c2ccccn2)CC1`, for which the solubility is greater than 43 µg/mL. `Cc1ccc(C)c(OCCn2cc(C(=O)O)c3ccccc32)c1`: the solubility is 25.1 µg/mL (≈ 81.1 µM).

For the compound `COc1ccc(CSc2nc(C)cc(=O)[nH]2)cc1`, the solubility was greater than 26 µg/mL. `N#Cc1ccccc1CSc1nc2ncc(Br)cc2[nH]1`: the solubility is 0.42 µg/mL (inactive) (≈ 1.22 µM).

Regarding `CCN1CCN(c2nc3ccccc3nc2C(C#N)C(=O)OC2CCCCC2)CC1` (centres undefined), the solubility is 24.3 µg/mL (≈ 59.6 µM). With `CCOc1ccc(-c2nc(-c3ccncc3)no2)cc1OCC` the figure was 0.77 µg/mL (inactive) (≈ 2.47 µM).

In the case of `CN(C)c1nc(N)nc(CSc2nnnn2-c2cccc3ccccc23)n1`, the solubility was 0.65 µg/mL (inactive) (≈ 1.71 µM). For the compound `Cc1ccc(S(=O)(=O)C(c2ccccc2)c2c(C)noc2C)cc1` (centres undefined), the solubility is 17.9 µg/mL (≈ 52.4 µM). On to `CCCC(=O)Nc1cccc(NC(=O)c2ccccc2Br)c1`, for which the solubility was greater than 36 µg/mL. With `C=CCn1c(SCC(=O)c2ccc(O)c(O)c2)nnc1-c1ccccc1OC`, the solubility was 26 µg/mL (≈ 65.4 µM). With `C/C=C/Cn1c(SCCCc2ccccc2)nc2c1c(=O)[nH]c(=O)n2C` the figure was 0.19 µg/mL (inactive) (≈ 0.513 µM); with `COc1ccc(OC)c(S(=O)(=O)Nc2cnc3ccccc3c2)c1`, 25.6 µg/mL (≈ 74.3 µM); with `Cc1ccc(N2CCN(S(=O)(=O)N3CCCCC3)CC2)c(C)c1`, 1.4 µg/mL (inactive) (≈ 4.15 µM). `Cc1ccnc(NC(=O)CCCOc2cc(=O)n(C)c3ccccc23)c1`: the solubility is 8.3 µg/mL (inactive) (≈ 23.6 µM). As to `CC(=O)c1ccc(N2CCN(S(=O)(=O)c3ccc4c(c3)CC(=O)N4)CC2)cc1`, the solubility is 3 µg/mL (inactive) (≈ 7.51 µM). With `Cc1ccc(NS(=O)(=O)c2ccc3c(c2)CCC(=O)N3)cc1C` the figure was 24.4 µg/mL (≈ 73.8 µM); with `O=c1[nH]c2c(s1)C(c1cccnc1)C1C3CCC(C3)C1S2` (centres undefined), greater than 31 µg/mL; with `c1ccc(CC2CCN(c3ncnc4sccc34)CC2)cc1`, 0.03 µg/mL (inactive) (≈ 0.0969 µM). As for `Cc1ccc(NC(=O)CCC(=O)N/N=C/c2ccc([N+](=O)[O-])o2)cc1C`, the solubility is 0.43 µg/mL (inactive) (≈ 1.2 µM). In the case of `O=C(O)c1cccnc1SCCc1ccccc1`, the solubility was greater than 26 µg/mL. With `COc1cc(NC(=O)c2cc(C3CC3)on2)c(OC)cc1Cl` the figure was < 0.01 µg/mL (inactive); with `Cc1ccc(C)c(NS(=O)(=O)c2cc(C(=O)Nc3ccccc3-c3ccccc3)ccc2Cl)c1`, 0.43 µg/mL (inactive) (≈ 0.876 µM). Regarding `O=C(CSc1cccc2cccnc12)N1CCCC1`, the solubility is greater than 27 µg/mL.

Consider `Brc1ccc2c(c1)CN1CCCC1=N2`, for which the solubility was greater than 25 µg/mL. For `Cn1nnnc1Sc1ncnc2scc(-c3ccccc3)c12` the value was 2.4 µg/mL (inactive) (≈ 7.35 µM); for `O=C1CCCC2=C1C1(CCCC1)N=C(Nc1nc3ccccc3o1)N2`, 0.13 µg/mL (inactive) (≈ 0.386 µM).

By solubility is commonly meant the dissolved amount per volume that the medium holds.
